Test results taken from PubChem BioAssay (NCI).
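These data come from cells grown in 96-well plates and exposed to compound for 48 hours at five concentrations. TGI: concentration producing complete growth inhibition.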

What was measured:
Assay in all cases: NCI tumour cell line growth inhibition, 48 h
[1] = system: DU-145 prostate
[2] = system: OVCAR-4 ovarian
[3] = system: NCI-H23 lung
[4] = system: NCI-H226 lung
[5] = system: HCT-15 colon
[6] = system: NCI/ADR-RES ovarian
[7] = system: LOX IMVI melanoma
[8] = system: HCT-116 colon
[9] = system: OVCAR-5 ovarian
[10] = system: SN12C renal
[11] = system: PC-3 prostate
[12] = system: BT-549 breast
[13] = system: MDA-MB-231 breast
[14] = system: COLO 205 colon
[15] = system: HOP-62 NSCLC
[16] = system: RPMI-8226 leukemia
[17] = system: OVCAR-3 ovarian
[18] = system: SNB-75 CNS
[19] = system: CCRF-CEM leukemia
[20] = system: SF-539 CNS
[21] = system: NCI-H522 lung
[22] = system: A498 renal
[23] = system: UACC-257 melanoma
[24] = system: MDA-MB-435
[25] = system: TK-10 renal
[26] = system: IGROV1 ovarian
[27] = system: KM12 colon
[28] = system: SK-OV-3 ovarian
[29] = system: SK-MEL-5 melanoma
[30] = system: HT29 colon
[31] = system: U251 CNS
[32] = system: SK-MEL-2 melanoma
[33] = system: MCF7 breast
[34] = system: MOLT-4 leukemia
[35] = system: UO-31 renal
[36] = system: UACC-62 melanoma
[37] = system: SF-295 CNS
[38] = system: HOP-92 NSCLC
[39] = system: SW-620 colon
[40] = system: NCI-H460 lung
[41] = system: OVCAR-8 ovarian
[42] = system: SNB-19 CNS
[43] = system: HCC-2998 colon
[44] = system: A549 NSCLC
[45] = system: T-47D breast
[46] = system: SF-268 CNS
[47] = system: 786-0 renal
[48] = system: M14 melanoma
[49] = system: HL-60(TB) leukemia
[50] = system: SK-MEL-28 melanoma
[51] = system: HS 578T breast
[52] = system: ACHN renal
[53] = system: K-562 leukemia
[54] = system: SR leukemia
[55] = system: CAKI-1 renal
[56] = system: MALME-3M melanoma
[57] = system: MDA-N
[58] = system: EKVX NSCLC
[59] = system: RXF 393 renal

Work on `O=C1C=CC(=O)c2c(O)c(N3CCC[C@@H]3CO)c(Cl)c(O)c21` yielded a TGI [1] of 3.28 µM, a TGI [2] of 3.16 µM and a TGI [3] of 3.55 µM. For the same compound, the TGI [4] was 3.16 µM, the TGI [5] was 3.35 µM and the TGI [6] was 6.25 µM. The TGI [7] was 3.16 µM, the TGI [8] was 2910 nM and the TGI [9] was 3.08 µM. The TGI [10] was 3.25 µM, the TGI [11] was 4.78 µM and the TGI [12] was 3.7 µM. The TGI [13] was 4.03 µM, the TGI [14] was 2880 nM and the TGI [15] was 3.06 µM. The TGI [16] was 1690 nM, the TGI [17] was 3.08 µM and the TGI [18] was 3.12 µM. For the same compound, the TGI [19] was 869 nM, the TGI [20] was 3.42 µM and the TGI [21] was 2360 nM. The TGI [22] was 6.96 µM, the TGI [23] was 3.28 µM and the TGI [24] was 3.78 µM. It also gave a TGI [25] of 3.3 µM, a TGI [26] of 3.27 µM and a TGI [27] of 3.16 µM. The TGI [28] was 7.78 µM, the TGI [29] was 2280 nM and the TGI [30] was 4.9 µM. The TGI [31] was 3.46 µM, the TGI [32] was 3.15 µM and the TGI [33] was 2700 nM. The TGI [34] was 1140 nM, the TGI [35] was 3.49 µM and the TGI [36] was 2960 nM. It also gave a TGI [37] of 3.25 µM, a TGI [38] of 3.04 µM and a TGI [39] of 3.42 µM. For the same compound, the TGI [40] was 3.52 µM, the TGI [41] was 4.13 µM and the TGI [42] was 3.09 µM. The TGI [43] was 3.49 µM, the TGI [44] was 4.19 µM and the TGI [45] was 4.27 µM. The TGI [46] was 1740 nM, the TGI [47] was 3.17 µM and the TGI [48] was 3.2 µM. The TGI [49] was 734 nM, the TGI [50] was 3.24 µM and the TGI [51] was 4.03 µM. For the same compound, the TGI [52] was 2960 nM, the TGI [53] was 2220 nM and the TGI [54] was 4.88 µM. The TGI [55] was 2940 nM, the TGI [56] was 3.07 µM and the TGI [57] was 3.15 µM. The TGI [58] was 3.55 µM and the TGI [59] was 2980 nM.
